From PMC5093981 (Malaria Journal, 2016)

Tests used:
[1] = tested on: PfRuvB3; assay: PfRuvB3 unwinding activity: requirement of co-factors and effects of salt/EDTA; type: biochemical, Plasmodium falciparum; conditions: for Relative activity (%), PfRuvB3 unwinding activity: standard reaction = 35
Protocol: (§1) Unwinding of [^32P]-labelled partial duplex DNA was employed as a measurement of helicase activity. The reaction mixture (10 µl) contained 20 mM Tris–HCl pH 9.0, 8 mM DTT, 2 mM MgCl2, 2 mM ATP, 10 mM KCl, 4% (w/v) sucrose, […] BSA, [^32P]-labelled DNA duplex substrate (Table 1) and purified PfRuvB3. The assay was performed at 37 °C for 90 min (unless indicated otherwise) and terminated with addition of 10X DNA loading dye (Fermentas, USA) and further incubation at 37 °C for 5 min. Helicase substrate and product were separated by 12% non-denaturing PAGE and then the gel was exposed to an X-ray film. DNA unwinding was quantified by densitometric analysis of exposed substrate and product bands using GeneTools (Syngene). Percent unwinding is calculated using the following formula: [band density of product [single-stranded (ss)DNA] / (band density of ssDNA + band density of substrate (duplex DNA)] × 100 minus [percent unwinding in the absence of enzyme].
The ability of PfRuvB3 to hydrolyze different NTPs was studied by including 2 mM dATP, dCTP, dGTP, or dTTP in place of ATP in the standard reaction assay. The effects of ATP concentrations ranging from 0.3 to 20 mM on helicase activity were also determined. Divalent cation requirement was investigated mixture 2 mM CaCl2, CuCl2, NiSO4, ZnCl2, FeSO4, MnCl2 or MgSO4 in place of MgCl2. Effects of salt (0-200 mM NaCl in place of 10 mM KCl) and EDTA (5 mM) also were evaluated.

[2] = biological target: PfRuvB3; assay: Effect of DNA helicase inhibitors on PfRuvB3 unwinding (helicase) activity; type: biochemical, Plasmodium falciparum; conditions: recombinant PfRuvB3; M13-17-mer duplex DNA pre-incubated with 0.1 to 50 μM drug for 10 min; 37 °C 90 min
Protocol: as §1
Known DNA helicase inhibitors, aphidicolin genistein, daunorubicin, doxorubicin, mitoxantrone, and netropsin (Sigma, USA) were prepared as 10^−2 M stock solutions in dimethylsulfoxide (DMSO) and stored at −20 °C until used. All compounds were diluted with 10 mM Tris–HCl, pH 9.0 to specified concentrations for the assay. M13-17-mer duplex DNA was pre-incubated with 0.1 to 50 μM drug for 10 min prior to addition to the standard helicase assay mixture. The 0.5% (v/v final concentration) of DMSO was used as solvent control to determine its effects on helicase activity. The dose–response curves of relative activities of PfRuvB3 and various drug concentrations were generated, and half-maximal inhibitory concentration (IC50), the concentration of compound to inhibit enzyme activity by 50%, was obtained using GraphPad Prism 6.01 software.

[3] = tested on: parasite growth; set-up: method as in PMID 16772048; conditions: read-out: IC50, parasite growth inhibition; cited from earlier work
[4] = biological target: P. falciparum 60 kDa DNA helicase (PfDH60); set-up: method as in PMID 16884495; conditions: cited from earlier work
[5] = biological target: P. falciparum 45 kDa helicase (PfH45); set-up: method as in PMID 17822710; conditions: cited from earlier work
[6] = biological target: human DNA helicase (HDH II); set-up: method as in PMID 1614415; conditions: cited from earlier work
[7] = biological target: P. falciparum UvrD helicase (PfUDN); conditions: cited from earlier work
[8] = biological target: P. falciparum DNA helicase A (PfDH A); set-up: method as in PMID 16772048; conditions: cited from earlier work
[9] = tested on: P. falciparum Dbp5/DDX19 homolog (PfD66); set-up: method as in PMID 21980563; conditions: cited from earlier work
[10] = 2 mM divalent cation salt in place of MgCl2, 1 μg PfRuvB3
[11] = 2 mM dNTP in place of ATP, 1 μg PfRuvB3

SMILES: [Ca+2].[Cl-].[Cl-] [CaCl2]
- Relative activity (%), PfRuvB3 unwinding activity [1, 10]: <2%

SMILES: [Cl][Cu][Cl] [CuCl2]
- Relative activity (%), PfRuvB3 unwinding activity [1, 10]: 36%

SMILES: O=C(O)CN(CCN(CC(=O)O)CC(=O)O)CC(=O)O [EDTA]
- Relative activity (%), PfRuvB3 unwinding activity ([1]; +EDTA (5 mM)): <2%
- Helicase function ([1]; EDTA 5 mM added to reaction mixture): complete loss of helicase function

SMILES: O=S(=O)([O-])[O-].[Fe+2] [FeSO4]
- Relative activity (%), PfRuvB3 unwinding activity [1, 10]: <2%

SMILES: O=S(=O)([O-])[O-].[Mg+2] [MgSO4]
- Relative activity (%), PfRuvB3 unwinding activity [1, 10]: 37%

SMILES: [Cl][Mn][Cl] [MnCl2]
- Relative activity (%), PfRuvB3 unwinding activity [1, 10]: <2%

SMILES: [Cl-].[Na+] [NaCl]
- Unwinding activity of PfRuvB3 ([1]; 100 mM NaCl): almost absent
- Relative activity (%), PfRuvB3 unwinding activity ([1]; +NaCl (200 mM)): <2%
- Enzyme activity inhibited ([1]; NaCl 200 mM): ~98%

SMILES: [Cl][Ni][Cl] [NiCl2]
- Relative activity (%), PfRuvB3 unwinding activity [1, 10]: 34%

SMILES: [Cl-].[Cl-].[Zn+2] [ZnCl2]
- Relative activity (%), PfRuvB3 unwinding activity [1, 10]: 30%

SMILES: C[C@@]1(CO)[C@H](O)CC[C@@]2(C)[C@H]1CC[C@H]1C[C@@H]3C[C@@]12CC[C@]3(O)CO [aphidicolin]
- IC50 [2]: > 50000 nM

SMILES: Nc1ncnc2c1ncn2[C@H]1C[C@H](O)[C@@H](COP(=O)(O)OP(=O)(O)OP(=O)(O)O)O1 [dATP]
- Relative activity (%), PfRuvB3 unwinding activity [1, 11]: 33%

SMILES: Nc1ccn([C@H]2C[C@H](O)[C@@H](COP(=O)(O)OP(=O)(O)OP(=O)(O)O)O2)c(=O)n1 [dCTP]
- Relative activity (%), PfRuvB3 unwinding activity [1, 11]: <2%

SMILES: Nc1nc2c(ncn2[C@H]2C[C@H](O)[C@@H](COP(=O)(O)OP(=O)(O)OP(=O)(O)O)O2)c(=O)[nH]1 [dGTP]
- Relative activity (%), PfRuvB3 unwinding activity [1, 11]: <2%

SMILES: Cc1cn([C@H]2C[C@H](O)[C@@H](COP(=O)(O)OP(=O)(O)OP(=O)(O)O)O2)c(=O)[nH]c1=O [dTTP]
- Relative activity (%), PfRuvB3 unwinding activity [1, 11]: <2%

SMILES: COc1cccc2c1C(=O)c1c(O)c3c(c(O)c1C2=O)C[C@@](O)(C(C)=O)C[C@@H]3O[C@H]1C[C@H](N)[C@H](O)[C@H](C)O1 [daunorubicin]
- IC50 [2]: 760 nM
- IC50 [3]: 2500 nM
- IC50 [4]: 3000 nM
- IC50 [5]: 5000 nM
- IC50 [6]: 6230 nM
- IC50 [7]: 4400 nM
- IC50 [8]: 2000 nM

SMILES: COc1cccc2c1C(=O)c1c(O)c3c(c(O)c1C2=O)C[C@@](O)(C(=O)CO)C[C@@H]3O[C@H]1C[C@H](N)[C@H](O)[C@H](C)O1 [doxorubicin]
- IC50 [2]: 2600 nM
- IC50 [3]: 1500 nM

SMILES: O=c1c(-c2ccc(O)cc2)coc2cc(O)cc(O)c12 [genistein]
- IC50 [2]: > 50000 nM

SMILES: O=C1c2c(O)ccc(O)c2C(=O)c2c(NCCNCCO)ccc(NCCNCCO)c21 [mitoxantrone]
- IC50 [2]: > 50000 nM

SMILES: Cn1cc(NC(=O)c2cc(NC(=O)CN=C(N)N)cn2C)cc1C(=O)NCCC(=N)N [netropsin]
- IC50 [9]: 3200 nM
- IC50 [2]: 7090 nM
- IC50 [4]: 500 nM
- IC50 [5]: 800 nM
- IC50 [7]: 3300 nM
